Laboratory results from US20240173374A1, “LIPOSOMAL FORMULATIONS OF BORONIC ACID CONTAINING ACTIVE AGENTS” (Ohio State Innovation Foundation, priority 2021, published 2024).

Experiments:
[1] = BTZ / boronic acid drug loading into liposomes (UV absorption or HPLC); type: physicochemical; conditions: tiron-based liposomes, same drug loading protocol
Experimental: Remote loading of BTZ into liposomes encapsulating calcium ascorbate/calcium acetate. Lipids (DSPC/Chol/mPEG-DSPE 60:35:5 mole/mole) were dissolved in chloroform, dried into a thin film on a round-bottom flask and hydrated in 100 mM calcium ascorbate/50 mM calcium acetate (pH 8). The resulting liposomes were subjected to 5 cycles of freezing and thawing and extrusion through a 100-nm pore size polycarbonate membrane in a Lipex extruder at 65 degree. […] External buffer of the liposomes was exchanged to 130 mM NaCl/10 mM histidine (pH 6) by passing through a Sepharose CL-4B column. […] BTZ was dissolved in a small volume of DMSO and added to the liposomes and incubated under stirring at 20-60 degrees for 10-60 min (e.g., 30 min at 50 degree) to facilitate remote loading. BTZ diffuses into the liposomes and forms a complex with ascorbic acid (BTZ-ASC complex), which is negatively charged and partially precipitates intraliposome with calcium, resulting in stable encapsulation of the BTZ. Finally, unencapsulated BTZ was removed from the liposomes by passing through a Sepharose CL-4B column. BTZ concentration in the L-BTZ was determined by UV absorption or by HPLC. […]
Remote loading of BTZ into liposomes containing ascorbyl palmitate (ASC-C16) and encapsulating calcium acetate. […] BTZ concentration in the L-BTZ was determined by UV absorption or by HPLC. […]

[2] = system: NCI-H929 multiple myeloma; experiment: Antitumor activity in NCI-H929 multiple myeloma subcutaneous murine xenograft model; type: in vivo, mice; conditions: FIG. 3B
From the text: (3A) anti-tumor effect, (3B) body weight loss, and (3C) survival curves result in vivo.

[3] = Plasma pharmacokinetics of L-BTZ and Velcade in rats after single dose; type: in vivo; conditions: 0.6 mg/kg, 5 ul/g, plasma BTZ by LC-MS
Experimental: Plasma concentrations were determined by LC-MS. Compared to Velcade, the circulation time L-BTZ was much longer, which subsequently enhances the therapeutic effect and half-life time in vivo.

[4] = clinical trial for SLE; cited from earlier work
AML murine model = conditions: cited from earlier work
[5] = AML trial; cited from earlier work

CC(C)C[C@H](NC(=O)[C@@H](NC(=O)c1cccc(-c2ccccc2)n1)[C@@H](C)O)B(O)O [delanzomib]
drug loading [1]: High drug loading

CC(C)C[C@H](NC(=O)[C@H](Cc1ccccc1)NC(=O)c1cnccn1)B(O)O [free BTZ, Bortezomib]
body weight loss during treatment [2]: no significant body weight loss | CLss_F ([3]; i.v.): 18.9 mL/min/kg | Vz_F ([3]; i.v.): 54.22 L/kg | AUC(0-inf) ([3]; rat, iv): 864 ng·h/mL | AUC(0-t) ([3]; rat, iv): 322 ng·h/mL | Cmax ([3]; rat, iv): 45.4 ng/mL | Tmax ([3]; rat, iv): 0.25 h | half-life ([3]; rat, iv): 33.1 h | dropped out due to side effects [4]: 7/12 | reaching effective dose (limited by toxicity) (AML murine model): cannot reach effective dose | drop out due to neurotoxicity [5]: 4/7

CC(C)C[C@H](NC(=O)CNC(=O)c1cc(Cl)ccc1Cl)B(O)O [ixazomib]
drug loading [1]: High drug loading
